We go through one substance from patent publication US8541373B2, “BChE albumin fusions for the treatment of cocaine abuse” (priority 2009, dated 2013).

The subject of this assay is cocaine self-administration. Kind of assay: Cocaine self-administration. The class given is in vivo, squirrel monkeys (Saimiri sciureus). From the text: Adult male squirrel monkeys (Saimiri sciureus) weighing 0.8 to 1.2 kg were used as subjects. All monkeys were individually housed in a humidity and temperature controlled room and had free access to water. The monkeys were fed following any experimental procedures an amount of food (Lab Diet 5045, PMI Nutrition International, Richmond, Ind.; Banana Softies, Bio-Serv, Frenchtown, N.J.) determined to maintain a stable weight. Fresh fruit, vegetables and environmental enrichment were also provided daily. The animal care facilities were fully accredited by AAALAC and all experiments were approved by the NIDA Intramural Research Program Animal Care and Use Committee.
Three monkeys were trained to self-administer 30 μg/kg/inj i.v. cocaine. Details of the self-administration training procedure can be found elsewhere (Justinova et al., 2003). In brief, the monkeys were placed in a seated position in a Plexiglas restraint chair. The chair was enclosed in a larger acoustical chamber. On the front wall of the restraint chair there was a response lever and stimulus lights. A green light signaled the beginning of the session. The monkeys were trained to make 10 responses (fixed-ratio, FR, 10) to receive an i.v. injection of cocaine. The injection of cocaine was accompanied by the green light, turning off and a yellow stimulus light being presented for 2 sec. Following each cocaine injection there was also a 60-sec timeout. At the end of the timeout, the green light was turned on. Sessions lasted for 1 hour. Occasionally, saline was substituted for cocaine. Following the establishment of stable cocaine self-administration and reliable extinction of responding following saline substitution, AlbuBChE (5 mg/kg, i.m.) or its vehicle (i.m.) were given 2 hours prior to a self-administration session. Self-administration responding was then measured for 5 consecutive days. Following each drug test or saline substitution, responding for 30 μg/kg/inj cocaine was reestablished for at least 5 days. Following reinstatement testing (see below), the dose of cocaine available for self-administration was lowered to 10 μg/kg/inj and the effect of AlbuBChE (5 mg/kg, i.m.) was again determined.
The blood level data were analyzed separately for each metabolite and time point (5 or 30 min). […] The self-administration data were analyzed separately for response rate or injections following either vehicle treatment or AlbuBChE treatment. Control data were included in the analysis by taking the average of the last 3 days for the immediately preceding baseline condition. A within subjects ANOVA was then performed with follow-up tests contrasting days following vehicle or AlbuBChE with the control. For the reinstatement tests, a two-way ANOVA was performed for both response rate and injections, with time post vehicle or AlbuBChE as the within-subjects factor and pretreatment (vehicle or AlbuBChE) as the between subjects factor. Follow-up contrast compared vehicle and AlbuBChE at each time point.

Where [1] appears, read: 5 mg/kg i.m., 30 μg/kg/inj cocaine, tracked 5 days.

As to AlbuBChE, the “Duration of effect on cocaine self-administration” value (30 μg/kg/inj cocaine, reduced effectiveness) is on record as no less than 3 days. The Cocaine self-administration entry (5 mg/kg i.m., 30 μg/kg/inj cocaine) is listed as “reduced self-administration”. Besides, under setting [1], the “Self-administration injections vs baseline” value is “significantly different from control on day 1 and 4”; the “Self-administration response rate vs baseline” value is listed as “different from control on days 1-4”. Besides, the “Self-administration response rate and injections” value (5 mg/kg, 10 μg/kg/inj cocaine, 2 hrs following AlbuBChE) was “failed to reach significance”.
